Measurements reported in patent US20170166981A1, “BIOMARKERS AND METHODS OF USE THEREOF” (THE TRANSLATIONAL GENOMICS RESEARCH INSTITUTE, priority 2011, published 2017).

Experiments:
[1] = test system: metastatic triple negative breast cancer (mTNBC); test: Clinical tumor response of metastatic/locally recurrent TNBC patients to prior and molecularly-selected therapy (TNBC personalized genomics trial); type: in vivo, human
Description: The secondary objective is to conduct a comprehensive evaluation of genetic mutations in TNBC that may accelerate the development of rational and precise therapeutics; and to evaluate patient's best response to molecularly-selected therapy.
A patient eligible for clinical trial inclusion in this study had to meet all of the following criteria: (1) has a metastatic or locally recurrent triple negative breast cancer and is scheduled for medically indicated surgical biopsy or resection of disease; (2) have measurable or evaluable (nonmeasurable) disease based on results generated by RECIST v 1.1 (Eisenhauera, 2009) presented after surgical biopsy/resection. Following surgical resection, if the tumor sample is found to be inadequate for comprehensive molecular analysis, the patient would be deemed ineligible and would be replaced; (3) has received at least 1 prior chemotherapeutic regimen for their metastatic or locally recurrent TNBC prior to initiating the molecularly-selected therapy. There is no limit on the prior therapy for TNBC. Intervening therapies were strongly recommended to be held off if possible from the time of biopsy to the completion of sequencing so as not to change the cancer under the selective pressure of treatment, so that the sequencing results would be reflective of the current cancer; (4) is >18 years of age; (5) has an expected survival of at least 6 months, as estimated by the treating oncologist; (6) has planned surgical resection (indicated for the medical care of the patient) that will yield a minimum fresh/frozen tumor sample of 1 cm×1 cm×1 cm that will be available for molecular profiling analysis; (6) is agreeable to having a blood sample (10-20mL) drawn and analyzed to compare their normal genetic profile to that of their tumor sample; (7) has signed the most recent Patient Informed Consent Form and a Patient Authorization Form.
A patient would be excluded from this study if she meets any of the following criteria: (1) has breast cancer other than metastatic or locally recurrent TNBC; and surgical resection of the recurrent TNBC will render the patient as “no evidence of disease” (NED), and thus to be replaced; (2) has a history of heart disease, other conditions that would prevent treatment with a standard chemotherapeutic agent; (3) has evidence of CNS involvement that is progressing or that requires radiation, resection or steroid therapy; (4) has a serious uncontrolled intercurrent medical or psychiatric illness, including serious infection; (5) is pregnant or nursing; (6) is unable to comply with requirements of study.
Generally, 14 patients with previously treated triple negative breast cancer were included in the clinical study (Table 11). Samples were collected for sequencing with the SOLiD™ system (Applied Biosystems, Carlsbad, Calif.), and the patients were treated according to what is found after CLIA certification of the target.
The baseline was measured at the beginning of the treatment, after 2 cycles (close to two months), 75% regression in primary lesion were observed (FIG. 11).
Through the deep molecular profiling study described herein, a series of somatic events within individual tumors were detected that have informed or may have predicted the effectiveness of targeted therapies for some patients. Table 21 provides key information on therapeutically actionable concepts and clinical outcomes in the patient cohort used for this example.

BT20 breast cancer cells = details: reactivation of epigenetically silenced ERBB4; cited from earlier work

## C=C1C[C@@H]2CC[C@@]34C[C@H]5O[C@H]6[C@@H](O3)[C@H]3O[C@H](CC[C@@H]3O[C@H]6[C@H]5O4)CC(=O)C[C@@H]3[C@@H](OC)[C@@H](C[C@H](O)CN)O[C@H]3C[C@H]3O[C@@H](CC[C@@H]1O2)C[C@@H](C)C3=C [Eribulin, eribulin]
[1]; Patient # 4, biomarker profile guided treatment
  Best results: Stable Disease

## Cn1c(=O)n(-c2ccc(C(C)(C)C#N)cc2)c2c3cc(-c4cnc5ccccc5c4)ccc3ncc21 [BEX235]
[1]; Patient # 1, biomarker profile guided treatment (hit only one arm of what suggested MEK/AKT)
  Best results: Stable Disease

## Nc1ncn([C@H]2C[C@H](O)[C@@H](CO)O2)c(=O)n1 [5-aza-2′-deoxycytidine]
BT20 breast cancer cells
  apoptosis: increased apoptosis

## Cn1c(=O)n(-c2ccc(C(C)(C)C#N)cc2)c2c3cc(-c4cnc5ccccc5c4)ccc3ncc21 [BEZ235]
[1]; Patient 14
  reduction in nodes: 21%
[1]; Patient # 3, biomarker profile guided treatment
  Best results: Progressive Disease

## NC(=O)c1ccc(I)c([N+](=O)[O-])c1 [Iniparib]
[1]; patient mTNBC9 / TNBC-009 (DNA damage and double-strand break repair defects)
  clinical response: responsive
